Measurements taken from patent US8785457B2 (Cellzome Limited, priority 2009, dated 2014).
pIC50: −log10 of the molar value. Where two headings read alike, the source gives them in different places.

Experiments:
[1] = system: Salmonella typhimurium strain TA1537; test: Ames plate assay, TA1537
Method: (§1) Certain compounds of the invention were tested for their potential to induce gene mutations in bacterial strains of Salmonella typhimurium (strains TA1535, TA1537, TA98, TA100) and Escherichia coli (strain WP2uvrA(pKM101)) in a bacterial mutation assay in the absence and presence of metabolite activation (rat S9-mix). Compounds are tested at the following dose levels: 50, 150, 500, or 1500 μg/plate.
(§2) Vehicle control treatment is the vehicle used to prepare the test compound formulation diluted to the same extent as the test compound solution. Positive controls using known mutagens are included for each strain with and without rat S9 mix. Four plates are used for the vehicle control and two replicate plates per dose per strain for the treated groups and for each positive control. At the end of incubation the number of revertant colonies per plate are recorded and mean values calculated for each vehicle control, positive control and concentration of test compound used. Results are also expressed as a ratio of the mean values to the mean concurrent vehicle control value (i.e. fold increase).

[2] = system: Salmonella typhimurium strain TA100; test: Ames plate assay, TA100
Method: as §1, §2

[3] = system: Escherichia coli strain WP2uvrA(pKM101); test: Ames plate assay, WP2uvrA(pKM101)
Method: as §1, §2

[4] = system: Salmonella typhimurium strain TA98; test: Ames plate assay, TA98
Method: as §1, §2

[5] = system: Salmonella typhimurium strain TA1535; test: Ames plate assay, TA1535
Method: as §1, §2

PI3K delta (PI3 Kd) = molecular target: T1, PI3K delta (PI3 Kd) (Homo sapiens, UniProt O00329); test: kinobeads assay, PI3K delta; type: binding; conditions: kinobeads assay, read-out: Inhibition values (IC50) PI3Kd
T1 construct: endogenous in cells; host or cells: Jurkat, clone E6-1 (ATCC TIB-152) cell lysate
T1 sequence (O00329 whole entry): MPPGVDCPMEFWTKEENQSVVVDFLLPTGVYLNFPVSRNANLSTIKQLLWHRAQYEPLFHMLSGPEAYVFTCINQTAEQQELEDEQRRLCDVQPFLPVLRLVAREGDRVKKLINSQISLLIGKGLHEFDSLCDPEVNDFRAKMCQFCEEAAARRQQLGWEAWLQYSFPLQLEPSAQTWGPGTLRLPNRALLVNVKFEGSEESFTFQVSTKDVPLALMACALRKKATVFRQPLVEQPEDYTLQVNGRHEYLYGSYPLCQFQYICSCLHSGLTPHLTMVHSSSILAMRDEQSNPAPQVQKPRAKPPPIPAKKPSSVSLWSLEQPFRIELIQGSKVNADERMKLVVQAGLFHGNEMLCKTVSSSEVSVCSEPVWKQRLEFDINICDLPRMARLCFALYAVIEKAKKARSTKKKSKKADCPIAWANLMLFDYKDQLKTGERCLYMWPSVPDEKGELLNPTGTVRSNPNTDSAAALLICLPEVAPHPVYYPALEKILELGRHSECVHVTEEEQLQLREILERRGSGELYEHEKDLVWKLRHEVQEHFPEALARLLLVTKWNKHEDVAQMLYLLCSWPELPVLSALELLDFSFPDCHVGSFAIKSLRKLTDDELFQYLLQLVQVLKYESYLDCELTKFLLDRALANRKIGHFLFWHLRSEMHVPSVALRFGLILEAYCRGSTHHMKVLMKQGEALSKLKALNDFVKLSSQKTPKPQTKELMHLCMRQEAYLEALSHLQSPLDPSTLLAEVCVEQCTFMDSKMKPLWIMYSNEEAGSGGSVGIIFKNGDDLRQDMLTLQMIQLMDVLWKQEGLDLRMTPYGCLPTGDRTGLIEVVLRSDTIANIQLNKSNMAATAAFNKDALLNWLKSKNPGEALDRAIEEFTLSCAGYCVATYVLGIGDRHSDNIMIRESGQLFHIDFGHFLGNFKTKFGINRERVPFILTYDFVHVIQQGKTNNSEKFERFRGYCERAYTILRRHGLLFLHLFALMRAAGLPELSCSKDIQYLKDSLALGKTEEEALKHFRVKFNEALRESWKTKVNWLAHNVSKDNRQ
T1 sequence (P27986 whole entry partner): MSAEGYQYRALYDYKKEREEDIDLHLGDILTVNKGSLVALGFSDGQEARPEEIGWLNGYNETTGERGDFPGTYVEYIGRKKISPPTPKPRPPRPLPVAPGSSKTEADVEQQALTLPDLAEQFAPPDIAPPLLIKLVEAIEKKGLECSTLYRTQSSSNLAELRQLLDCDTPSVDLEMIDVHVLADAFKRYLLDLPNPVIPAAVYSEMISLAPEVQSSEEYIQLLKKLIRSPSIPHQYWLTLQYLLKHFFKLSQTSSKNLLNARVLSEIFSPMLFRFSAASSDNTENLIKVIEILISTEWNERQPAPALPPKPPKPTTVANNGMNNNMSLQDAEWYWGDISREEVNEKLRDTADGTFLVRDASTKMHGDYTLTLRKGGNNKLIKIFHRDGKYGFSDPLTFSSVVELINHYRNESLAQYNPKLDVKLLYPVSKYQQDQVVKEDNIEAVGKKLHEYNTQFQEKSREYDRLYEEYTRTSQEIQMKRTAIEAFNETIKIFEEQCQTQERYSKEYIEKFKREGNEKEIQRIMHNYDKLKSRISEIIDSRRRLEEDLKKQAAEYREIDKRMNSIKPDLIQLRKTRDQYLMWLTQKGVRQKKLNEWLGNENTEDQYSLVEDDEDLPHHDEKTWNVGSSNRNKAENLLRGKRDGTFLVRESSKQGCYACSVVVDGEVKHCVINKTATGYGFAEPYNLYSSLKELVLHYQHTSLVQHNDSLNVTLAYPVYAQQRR
Procedure, shortened: (§3)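 Competitive binding in Jurkat cell lysate (5 mg/ml total protein): test compounds at various concentrations competed with beads bearing immobilized phenylmorpholin-chromen ligand. Bead-bound kinases were eluted and quantified by antibody dot blot with infrared detection; IC50 values came from dose-response curves.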

[6] = molecular target: T2, DNA-dependent protein kinase (DNA-PK) (Homo sapiens, UniProt P78527); test: kinobeads assay, DNA-PK; type: binding; conditions: kinobeads assay
T2 construct: endogenous in cells; host or cells: Jurkat, clone E6-1 (ATCC TIB-152) cell lysate
Procedure, shortened: as §3

PI3Kalpha (PI3Ka) = molecular target: T3, PI3Kalpha (PI3Ka) (Homo sapiens, UniProt P42336); test: kinobeads assay, PI3Kalpha; type: binding; conditions: kinobeads assay, Table 6
T3 construct: endogenous in cells; host or cells: cell lysate
T3 sequence (P42336 whole entry): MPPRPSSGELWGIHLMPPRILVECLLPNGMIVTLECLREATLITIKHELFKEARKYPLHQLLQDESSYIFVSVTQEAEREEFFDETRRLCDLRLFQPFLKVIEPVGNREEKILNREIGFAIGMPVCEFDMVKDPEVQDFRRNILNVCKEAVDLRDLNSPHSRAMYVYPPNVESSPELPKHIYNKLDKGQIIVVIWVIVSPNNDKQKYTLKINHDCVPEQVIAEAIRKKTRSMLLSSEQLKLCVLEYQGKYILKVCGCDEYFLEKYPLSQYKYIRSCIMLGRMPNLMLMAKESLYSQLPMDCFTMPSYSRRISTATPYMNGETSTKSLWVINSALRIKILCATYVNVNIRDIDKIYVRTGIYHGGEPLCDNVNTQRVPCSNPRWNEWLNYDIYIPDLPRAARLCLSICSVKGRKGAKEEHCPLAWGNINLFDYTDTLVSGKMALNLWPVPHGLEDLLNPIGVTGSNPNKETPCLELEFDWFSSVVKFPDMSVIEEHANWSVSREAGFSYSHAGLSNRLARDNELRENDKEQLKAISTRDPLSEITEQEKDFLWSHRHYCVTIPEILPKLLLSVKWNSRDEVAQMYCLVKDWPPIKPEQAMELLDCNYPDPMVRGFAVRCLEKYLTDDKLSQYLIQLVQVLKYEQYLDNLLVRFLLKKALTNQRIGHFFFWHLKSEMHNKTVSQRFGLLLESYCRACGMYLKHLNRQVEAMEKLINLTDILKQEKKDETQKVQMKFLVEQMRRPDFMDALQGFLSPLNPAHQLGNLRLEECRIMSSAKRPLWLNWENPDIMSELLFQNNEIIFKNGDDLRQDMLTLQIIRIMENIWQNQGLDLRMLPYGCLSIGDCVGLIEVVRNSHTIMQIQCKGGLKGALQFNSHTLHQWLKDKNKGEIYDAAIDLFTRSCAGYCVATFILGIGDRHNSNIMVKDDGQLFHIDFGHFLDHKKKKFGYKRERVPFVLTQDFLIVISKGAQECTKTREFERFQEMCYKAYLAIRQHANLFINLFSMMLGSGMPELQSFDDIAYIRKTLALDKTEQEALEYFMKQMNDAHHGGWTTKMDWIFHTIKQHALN
T3 sequence (P27986 whole entry partner): as the sequence (P27986 whole entry partner) above
Procedure, shortened: (§4)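 Competitive pull-down in cell lysate: compound (various conc.) + phenylmorpholin-chromen affinity beads, incubate, separate beads, elute. Multiplexed immunodetection of bound kinases; dose-response fit → IC50.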

PI3 Kgamma (PI3 Kg) = molecular target: T4, PI3 Kgamma (PI3 Kg) (Homo sapiens, UniProt P48736); test: kinobeads assay, PI3Kgamma; type: binding; conditions: kinobeads assay, Table 6; read-out: Inhibition values (IC50) PI3Kg
T4 construct: endogenous in cells; host or cells: cell lysate
T4 sequence (P48736 whole entry): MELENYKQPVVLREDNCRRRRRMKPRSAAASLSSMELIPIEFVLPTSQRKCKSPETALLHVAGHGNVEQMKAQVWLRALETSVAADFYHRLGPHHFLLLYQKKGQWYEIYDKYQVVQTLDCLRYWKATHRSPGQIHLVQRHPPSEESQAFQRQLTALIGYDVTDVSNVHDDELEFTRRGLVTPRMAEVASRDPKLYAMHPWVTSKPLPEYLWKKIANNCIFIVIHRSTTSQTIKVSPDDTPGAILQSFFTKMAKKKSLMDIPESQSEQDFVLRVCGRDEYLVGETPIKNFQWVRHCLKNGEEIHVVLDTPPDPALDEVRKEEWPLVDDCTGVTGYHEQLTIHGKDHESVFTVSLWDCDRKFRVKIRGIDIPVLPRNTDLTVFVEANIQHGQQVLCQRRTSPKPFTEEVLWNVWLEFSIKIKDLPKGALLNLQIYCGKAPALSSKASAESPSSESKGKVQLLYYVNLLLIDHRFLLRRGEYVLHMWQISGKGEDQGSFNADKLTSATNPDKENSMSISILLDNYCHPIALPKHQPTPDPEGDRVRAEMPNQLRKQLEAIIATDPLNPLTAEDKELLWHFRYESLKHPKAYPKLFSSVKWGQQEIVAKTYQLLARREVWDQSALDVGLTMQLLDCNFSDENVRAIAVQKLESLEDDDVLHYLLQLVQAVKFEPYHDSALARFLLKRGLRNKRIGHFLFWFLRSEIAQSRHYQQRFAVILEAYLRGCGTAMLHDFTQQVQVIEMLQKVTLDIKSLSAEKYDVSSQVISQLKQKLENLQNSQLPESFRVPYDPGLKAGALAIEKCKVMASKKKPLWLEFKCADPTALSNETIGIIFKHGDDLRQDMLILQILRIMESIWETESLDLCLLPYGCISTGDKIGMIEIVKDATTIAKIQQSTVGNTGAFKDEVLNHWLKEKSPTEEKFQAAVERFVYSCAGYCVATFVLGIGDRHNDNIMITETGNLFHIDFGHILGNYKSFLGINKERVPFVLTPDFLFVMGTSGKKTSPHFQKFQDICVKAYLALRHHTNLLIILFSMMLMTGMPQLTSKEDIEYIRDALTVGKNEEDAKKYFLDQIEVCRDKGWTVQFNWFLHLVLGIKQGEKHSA
Procedure, shortened: as §4

PI3 Kbeta (PI3 Kb) = molecular target: T5, PI3 Kbeta (PI3 Kb) (Homo sapiens, UniProt P42338); test: kinobeads assay, PI3Kbeta; type: binding; conditions: kinobeads assay, Table 6; read-out: Inhibition values (IC50) PI3Kb
T5 construct: endogenous in cells; host or cells: cell lysate
T5 sequence (P42338 whole entry): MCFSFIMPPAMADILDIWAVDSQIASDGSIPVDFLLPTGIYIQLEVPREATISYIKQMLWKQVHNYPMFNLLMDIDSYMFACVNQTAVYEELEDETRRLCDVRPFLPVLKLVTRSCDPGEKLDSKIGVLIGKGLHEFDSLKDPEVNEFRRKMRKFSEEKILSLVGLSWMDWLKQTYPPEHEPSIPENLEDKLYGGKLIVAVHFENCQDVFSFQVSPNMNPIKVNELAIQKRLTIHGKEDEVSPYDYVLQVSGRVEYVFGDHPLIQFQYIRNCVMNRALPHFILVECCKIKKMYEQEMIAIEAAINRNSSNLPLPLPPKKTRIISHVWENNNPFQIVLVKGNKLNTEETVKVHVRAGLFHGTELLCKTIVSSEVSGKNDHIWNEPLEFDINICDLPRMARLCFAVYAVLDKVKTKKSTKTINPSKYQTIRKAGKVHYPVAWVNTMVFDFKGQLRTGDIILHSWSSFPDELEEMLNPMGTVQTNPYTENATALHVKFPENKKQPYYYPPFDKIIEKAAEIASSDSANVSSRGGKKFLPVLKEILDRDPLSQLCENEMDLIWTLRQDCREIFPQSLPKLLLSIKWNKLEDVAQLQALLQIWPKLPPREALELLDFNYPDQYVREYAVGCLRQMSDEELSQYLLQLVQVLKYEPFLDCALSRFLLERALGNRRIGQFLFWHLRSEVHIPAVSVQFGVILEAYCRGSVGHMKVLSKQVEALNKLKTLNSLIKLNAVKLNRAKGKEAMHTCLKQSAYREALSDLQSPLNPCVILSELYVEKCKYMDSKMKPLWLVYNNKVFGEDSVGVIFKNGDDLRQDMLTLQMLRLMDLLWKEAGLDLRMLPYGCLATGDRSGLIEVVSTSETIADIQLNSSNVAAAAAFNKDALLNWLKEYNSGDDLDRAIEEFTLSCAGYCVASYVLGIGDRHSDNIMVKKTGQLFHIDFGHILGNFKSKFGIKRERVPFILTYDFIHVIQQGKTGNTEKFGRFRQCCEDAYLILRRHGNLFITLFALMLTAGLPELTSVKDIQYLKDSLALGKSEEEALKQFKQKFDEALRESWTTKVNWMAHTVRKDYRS
T5 sequence (P27986 whole entry partner): as the sequence (P27986 whole entry partner) above
Procedure, shortened: as §4

[7] = system: S6RP serine-240/244 phosphorylation; test: In vitro Phospho-S6 cellular assay (pS6RP S240/244) in HEK293T/17 cells; type: cell-based; conditions: Homo sapiens, 2 hours, read-out: pS6 IC50
Text: Activation of mTOR signaling results in phosphorylation of several downstream targets. In cells, mTOR exists in two different protein complexes. The mTOR Complex-1 (mTORC1) phosphorylates and activates S6 Kinase 1 (S6K1) and S6 Kinase 2 (S6K2) (also known as p70S6K) which then phosphorylate S6 Ribosomal Protein (S6RP) (also known as RPS6)3. S6RP is phosphorylated on serine 235, serine 236, serine 240 and serine 244 by both pS6K1 and pS6K2. The mTOR Complex-2 (mTORC2) phosphorylates AKT on serine 473 which activates the AKT signaling pathway.
The assay measures a test compound's inhibition of S6RP serine-240/244 phosphorylation and inhibition of Akt serine-473 phosphorylation in human embryonic kidney derived HEK293T/17 cells (ATCC CRL-11268).
The HEK293T/17 cell line is maintained in DMEM media (Invitrogen catalogue number 41965-039) supplemented with 10% FCS at 37° C. in a 5% CO2 humidified incubator.
Cells are seeded in 96-well plates at 40,000 cells/well (pS6RP S240/244 assay) or 80,000 cells/well (pAkt S473 assay) in 90 μl growth media (DMEM, 2% FCS). Plates are incubated for 1 hour in a humidified incubator to allow the cells to adhere. Cells are treated with 8 concentrations of test compounds or DMSO alone for controls (final DMSO concentration 0.1%) and incubated at 37° C. for 2 hours. Then 20 μl of 5× concentrated lysis buffer (750 mM NaCl, 100 mM Tris pH7.4, 5 mM ADTA, 5 mM EGTA, 5% Triton X-100) is added, plates are sealed and incubated for 15 minutes at 4° C. with gentle shaking. After cell lysis, 25 μl cell lysate is transferred to a MesoScale plate coated with an antibody to pS6RP Ser240/244 (MesoScale Discovery K150DGD-3) or an antibody to pAkt Ser 473 (MesoScale Discovery K151DGD-3). Plates have been blocked before by incubation with 150 μl MesoScale Discovery Blocking Solution-A for 1 hour at room temperature followed by washing with 150 μl 1× Tris wash buffer per well. After the transfer of the cell lysate to the MSD plate, the pS6RP (or pAkt) protein is captured on the coated antibody by incubation at room temperature for 1 hour with gentle shaking. After the capture step the plate is washed three times with 150 μl of 1× Tris wash buffer per well. Then 25 μl detection antibody conjugated with a Sulfo-Tag is added and incubated for 1 hour at room temperature with gentle shaking. Subsequently the antibody solution is removed and the plate is washed 3 times with 150 μl×Tris wash buffer per well and 150 μl Read buffer is added. The plates are analysed on a MSD 2400 Plate Reader (MesoScale Discovery). Data analysis is performed using nonlinear regression for a sigmoidal dose-response with a variable slope.

[8] = Table 6, read-out: Inhibition values (IC50) DNAPK

CCOC(=O)N1Cc2nc(-c3ccc(N)cc3F)nc(N3CCOC[C@@H]3C)c2C1 [Example 138]
Ames plate assay TA1537 +S9 ([1]; TA1537, +S9, 50 μg/Plate): − | Ames plate assay TA1537 +S9 ([1]; TA1537, +S9, 150 μg/Plate): − | Ames plate assay TA1537 +S9 ([1]; TA1537, +S9, 500 μg/Plate): − | Ames plate assay TA1537 +S9 ([1]; TA1537, +S9, 1500 μg/Plate): − | Ames plate assay TA1537 −S9 ([1]; TA1537, −S9, 50 μg/Plate): − | Ames plate assay TA1537 −S9 ([1]; TA1537, −S9, 150 μg/Plate): − | Ames plate assay TA1537 −S9 ([1]; TA1537, −S9, 500 μg/Plate): − | Ames plate assay TA1537 −S9 ([1]; TA1537, −S9, 1500 μg/Plate): − | Ames plate assay TA100 +S9 ([2]; TA100, +S9, 50 μg/Plate): − | Ames plate assay TA100 +S9 ([2]; TA100, +S9, 150 μg/Plate): − | Ames plate assay TA100 +S9 ([2]; TA100, +S9, 500 μg/Plate): − | Ames plate assay TA100 +S9 ([2]; TA100, +S9, 1500 μg/Plate): − | Ames plate assay TA100 −S9 ([2]; TA100, −S9, 50 μg/Plate): − | Ames plate assay TA100 −S9 ([2]; TA100, −S9, 150 μg/Plate): − | Ames plate assay TA100 −S9 ([2]; TA100, −S9, 500 μg/Plate): − | Ames plate assay TA100 −S9 ([2]; TA100, −S9, 1500 μg/Plate): − | Ames plate assay WP2uvrA (pKM101) +S9 ([3]; +S9, 50 μg/Plate): − | Ames plate assay WP2uvrA (pKM101) +S9 ([3]; +S9, 150 μg/Plate): − | Ames plate assay WP2uvrA (pKM101) +S9 ([3]; +S9, 500 μg/Plate): − | Ames plate assay WP2uvrA (pKM101) +S9 ([3]; +S9, 1500 μg/Plate): − | Ames plate assay WP2uvrA (pKM101) −S9 ([3]; −S9, 50 μg/Plate): − | Ames plate assay WP2uvrA (pKM101) −S9 ([3]; −S9, 150 μg/Plate): − | Ames plate assay WP2uvrA (pKM101) −S9 ([3]; −S9, 500 μg/Plate): − | Ames plate assay WP2uvrA (pKM101) −S9 ([3]; −S9, 1500 μg/Plate): − | Ames plate assay TA98 +S9 ([4]; TA98, +S9, 50 μg/Plate): − | Ames plate assay TA98 +S9 ([4]; TA98, +S9, 150 μg/Plate): − | Ames plate assay TA98 +S9 ([4]; TA98, +S9, 500 μg/Plate): − | Ames plate assay TA98 +S9 ([4]; TA98, +S9, 1500 μg/Plate): − | Ames plate assay TA98 −S9 ([4]; TA98, −S9, 50 μg/Plate): − | Ames plate assay TA98 −S9 ([4]; TA98, −S9, 150 μg/Plate): − | Ames plate assay TA98 −S9 ([4]; TA98, −S9, 500 μg/Plate): − | Ames plate assay TA98 −S9 ([4]; TA98, −S9, 1500 μg/Plate): − | Ames plate assay TA1535 +S9 ([5]; TA1535, +S9, 50 μg/Plate): − | Ames plate assay TA1535 +S9 ([5]; TA1535, +S9, 150 μg/Plate): − | Ames plate assay TA1535 +S9 ([5]; TA1535, +S9, 500 μg/Plate): − | Ames plate assay TA1535 +S9 ([5]; TA1535, +S9, 1500 μg/Plate): − | Ames plate assay TA1535 −S9 ([5]; TA1535, −S9, 50 μg/Plate): − | Ames plate assay TA1535 −S9 ([5]; TA1535, −S9, 150 μg/Plate): − | Ames plate assay TA1535 −S9 ([5]; TA1535, −S9, 500 μg/Plate): − | Ames plate assay TA1535 −S9 ([5]; TA1535, −S9, 1500 μg/Plate): −

CCNC(=O)Nc1ccc(-c2nc3c(c(N4CCOC[C@@H]4C)n2)CCN(C(C)C)C3)cc1.O=CO [Example 75, (S)-1-ethyl-3-(4-(7-isopropyl-4-(3-methylmorpholino)-5,6,7,8-tetrahydropyrido[3,4-d]pyrimidin-2-yl)phenyl)urea formate]
pIC50 (PI3K delta (PI3 Kd); Table 6): < 5.00 | pIC50 [6, 8]: < 5.00 | Inhibition values (IC50) PI3Ka (PI3Kalpha (PI3Ka)): D (D >10 μM) | pIC50 (PI3 Kgamma (PI3 Kg)): < 5.00 | pIC50 (PI3 Kbeta (PI3 Kb)): < 5.00 | pIC50 [7]: 7.09

CCNC(=O)Nc1ccc(-c2nc3c(c(N4CCOCC4)n2)CCN(C(=O)OC)C3)cc1 [Example 95, methyl 2-(4-(3-ethylureido)phenyl)-4-morpholino-5,6-dihydropyrido[3,4-d]pyrimidine-7(8H)-carboxylate]
pIC50 (PI3K delta (PI3 Kd); Table 6): < 5.00 | pIC50 [6, 8]: < 5.00 | Inhibition values (IC50) PI3Ka (PI3Kalpha (PI3Ka)): D (D >10 μM) | pIC50 (PI3 Kgamma (PI3 Kg)): < 5.00 | pIC50 (PI3 Kbeta (PI3 Kb)): < 5.00 | pIC50 [7]: 6.66

CCNC(=O)Nc1ccc(-c2nc3c(c(N4CCOCC4)n2)CN(C(=O)OC(C)(C)C)C3)cc1 [Example 63, tert-butyl 2-(4-(3-ethylureido)phenyl)-4-morpholino-5H-pyrrolo[3,4-d]pyrimidine-6(7H)-carboxylate]
pIC50 (PI3K delta (PI3 Kd); Table 4): 5.00 to 6.00 | pIC50 (PI3K delta (PI3 Kd); Table 6): 5.00 to 6.00 | pIC50 ([6]; Table 4, read-out: Inhibition values (IC50) DNA-PK): < 5.00 | pIC50 [6, 8]: < 5.00 | pIC50 [7]: 7.34
